# pIC50: −log10 of the molar value.
# Legend:
# [1] = test system: PAXF1657 control empty vector cell line; test: 7-day proliferation assay, PAXF1657 control empty vector cell line (Example 9); assay type: cell-based; settings: 168 h; for GI50: 7-day compound treatment, CellTiter-Glo; for pIC50: Cell Line: PAXF1657 empty vector (EV) cell line, 7-day, read-out: C: 7-day proliferation assay: IC50 GeoMean
# How it was run: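 Viability by CellTiter-Glo after 7 days at 37° C., with compound-containing media replaced on day 3. Cells (500/well, RPMI1640 + 10% FBS) were PAXF1657 pairs: GRK2 overexpression vs empty vector, or CRISPR GRK2 knockout vs non-targeting clones; doses 30 μM-0.0002 μM final, 10 points, 0.3% DMSO.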
# [2] = molecular target: T1, GRK2 (Homo sapiens, UniProt P25098); test: ADPGlo GRK2 Inhibition Assay (Example 8); assay type: biochemical
# T1 construct: purchased SignalChem A14-10G
# T1 sequence (P25098 1-689): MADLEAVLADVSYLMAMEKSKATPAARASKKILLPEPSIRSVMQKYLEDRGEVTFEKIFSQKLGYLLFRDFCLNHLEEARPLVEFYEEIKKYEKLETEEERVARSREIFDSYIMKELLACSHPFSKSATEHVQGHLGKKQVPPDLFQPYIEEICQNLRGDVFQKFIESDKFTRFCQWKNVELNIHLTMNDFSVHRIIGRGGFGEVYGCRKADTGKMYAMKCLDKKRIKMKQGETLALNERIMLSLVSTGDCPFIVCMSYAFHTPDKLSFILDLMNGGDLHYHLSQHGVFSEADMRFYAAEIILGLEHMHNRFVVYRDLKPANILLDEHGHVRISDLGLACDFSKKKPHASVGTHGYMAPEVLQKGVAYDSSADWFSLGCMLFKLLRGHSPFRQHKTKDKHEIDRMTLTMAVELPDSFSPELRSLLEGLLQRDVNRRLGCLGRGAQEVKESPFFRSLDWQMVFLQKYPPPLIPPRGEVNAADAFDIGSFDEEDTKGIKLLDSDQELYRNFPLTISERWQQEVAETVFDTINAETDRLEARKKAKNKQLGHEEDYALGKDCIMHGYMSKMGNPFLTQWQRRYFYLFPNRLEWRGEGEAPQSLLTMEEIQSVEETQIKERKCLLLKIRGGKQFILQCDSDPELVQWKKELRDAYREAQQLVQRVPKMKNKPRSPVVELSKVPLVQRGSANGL
# How it was run: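 GRK2 (15 nM 2× enzyme solution) was preincubated 15 min with compound, then reacted 180 min at room temperature with 2× mix of 20 μM ATP plus GRKtide in HEPES pH 7.5, MgCl2, Tween-20, DTT. ADP was detected by ADP-Glo luminescence. Percent inhibition was normalised to enzyme and no-enzyme controls, with dose-response curves from threefold dilutions starting at 100 μM.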
# [3] = test system: PAXF1657 cell line stably overexpressing GRK2; test: 7-day proliferation assay, PAXF1657 stably overexpressing GRK2 (Example 9); assay type: cell-based; settings: for GI50: 168 h, 7-day compound treatment, CellTiter-Glo; for Ratio GRK2 overexpressing cells/Empty vector cells: GI50 in GRK2 overexpressing PAXF1657 over GI50 in empty vector PAXF1657
# Method: In order to identify compounds specific for GRK2, we generated two isogenic cell line pairs of the pancreatic cancer cell line PAXF1657, a pair of cells stably overexpressing GRK2 cDNA or the control empty vector and a cell line pair of PAXF1657 GRK2 knockout clonal cells versus non-targeting control clonal cells.
# Proliferation Assay: Cellular anti-proliferative activity of compounds was assessed by using the pancreatic cancer cell line, PAXF1657, stably overexpressing GRK2 cDNA or the control empty vector, as well as the parental urinary bladder cancer cell line, 5637. In addition, we also took advantage of GRK2 knockout cell lines that were generated via CRISPR. Cell lines were seeded into tissue culture treated, white-walled, 96-well plates at a density of 500 cells/well in RPMI1640 media supplemented with 10% H.I. FBS and penicillin/streptomycin. Plates were incubated overnight at 37° C., 5% CO2 to allow cells to adhere to the wells. GRK2 inhibitors were added to the cells using a 10-point dilution series with a final concentration ranging from 30 μM-0.0002 μM in 0.3% DMSO. At the time of compound addition, a set of plates, that were not treated with compounds, were collected and cell viability was measured using CellTiter-Glo (Promega). CellTiter-Glo reagent was added to the designed plates and luminescence was measuring using a Biotek Synergy plate reader. The compound treated cells were incubated for 3 days at 37° C., 5% CO2. The media was then aspirated from each well and replaced with fresh media containing GRK2 inhibitors. The compound treated cells were then incubated for an additional 4 days at 37° C., 5% CO2. Cell viability was assessed and at end of the 7-day compound treatment by CellTiterGlo.
# [4] = molecular target: T1, GRK2; test: GRK2 Inhibition Assay (TR-FRET, Example 7); assay type: biochemical
# How it was run: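 GRK2 at 1 nM preincubated 30 min with compound, then reacted 90 min at room temperature with 7 μM ATP and 50 nM ULight-TopoIIα in HEPES/MgCl2/DTT buffer. Phosphorylation detected by TR-FRET after Eu anti-TopoIIα and EDTA addition, 60 min.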
# [5] = 7.5 nM GRK2, 10 μM ATP, ADP-Glo, read-out: GRK2 IC50 (nM) (Example 8)
# [6] = 1 nM GRK2, 7 μM ATP, TR-FRET, read-out: GRK2 IC50 (nM) (Example 7)
# [7] = Enzyme Assay A, ADPGlo (Example 8), read-out: A: Enzymatic GRK2: IC50 (nM) (Example 8)
# [8] = Enzyme Assay B, TR-FRET (Example 7), read-out: B: Enzymatic GRK2: IC50 (nM) (Example 7)
# [9] = ADPGlo GRK2 enzyme assay, read-out: A: Enzymatic GRK2: IC50 (nM) (Example 8)
# [10] = TR-FRET GRK2 enzyme assay, read-out: B: Enzymatic GRK2: IC50 (nM) (Example 7)
Compound,GI50 [1] [µM],"IC50 [2, 5] [nM]",GI50 [3] [µM],Ratio GRK2 overexpressing cells/Empty vector cells [3],pIC50 [1],"IC50 [2, 7] [nM]","IC50 [4, 8] [nM]",further results
CCn1ncc(CNC(=O)c2cccc(NCc3nnc(-c4ccncn4)n3C)c2)c1F [compound 15],4.01,18,17.7,4.42,,,,
Cn1c(CNc2cccc(C(=O)NC3(c4ccccc4)CCOCC3)c2)nnc1-c1ccncn1 [compound 8],> 30,140,22.7,,,,,"IC50 [4, 6]: 170 nM"
Cn1c(CNc2cccc(C(=O)NCc3cc(F)cc(F)c3)c2)nnc1-c1ccncn1 [compound 10],1.58,15,13.7,8.65,,,,
Cn1c(CNc2cccc(C(=O)NCc3cccc(F)c3)c2)nnc1-c1ccncn1 [compound 2],1.79,49,20.5,11.46,,,,"IC50 [4, 6]: 56 nM"
"CCCn1c(CNc2cc(C(=O)NCc3ccccc3C(F)(F)F)ccn2)nnc1-c1ccncn1 [compound 35, 2-(((4-propyl-5-(pyrimidin-4-yl)-4H-1,2,4-triazol-3-yl)methyl)amino)-N-(2-(trifluoromethyl)benzyl)isonicotinamide]",1.3,,3.22,2.49,,,,"IC50 [4, 6]: 4.5 nM"
COc1cccc(OC)c1CNC(=O)c1cccc(NCc2nnc(-c3ccncn3)n2C)c1 [compound 6],2.08,44,12.5,6.01,,,,"IC50 [4, 6]: 19 nM"
"Cn1c(CNc2cccc(C(=O)NCc3ccccc3C(F)(F)F)c2)nnc1-c1ccncc1 [115h, reference compound]",8.91,,10,1.12,,,,
Cn1c(CNc2cccc(C(=O)NC3CCOc4c(Cl)cccc43)c2)nnc1-c1ccncn1 (centres unmarked) [compound 20],1.03,10,7.99,7.76,,,,
Cn1c(CNc2cccc(C(=O)NCc3cccnc3C(F)(F)F)c2)nnc1-c1ccncn1 [compound 4],0.79,36,4.59,5.79,,,,"IC50 [4, 6]: 28 nM"
Cc1cccnc1C(C)NC(=O)c1cccc(NCc2nnc(-c3ccncn3)n2C)c1 (centres unmarked) [compound 17],2.11,10,10.3,4.89,,,,
Cn1c(CNc2cccc(C(=O)N[C@H]3COc4ccccc43)c2)nnc1-c1ccncn1 [compound 26],0.68,9.8,4.18,6.15,,,,
"CCCn1c(CNc2cccc(C(=O)NCc3ccccc3C(F)(F)F)c2)nnc1-c1ccncn1 [139c, reference compound]",0.84,,1.47,1.75,,,,
Cc1ccnc(C(C)NC(=O)c2cccc(NCc3nnc(-c4ccncn4)n3C)c2)c1 (centres unmarked) [compound 25],> 30,,25.8,,,,,
CCc1cnccc1CNC(=O)c1cccc(NCc2nnc(-c3ccncn3)n2C)c1 [compound 12],0.97,51,8.01,8.24,,,,
Cc1nc(CNC(=O)c2cccc(NCc3nnc(-c4ccncn4)n3C)c2)cs1 [drawing 610],,,,,< 4.52,9.8,13,
C#COc1cccc(OS(=O)(=O)F)c1CNC(=O)c1cccc(NCc2nnc(-c3ccncc3)[nH]2)c1,,,,,4.88,15.5,7.7,

Compound,GI50 [1] [µM],"IC50 [2, 5] [nM]",GI50 [3] [µM],Ratio GRK2 overexpressing cells/Empty vector cells [3],pIC50 [1],"IC50 [2, 7] [nM]","IC50 [4, 8] [nM]",further results
Cc1ccc(C(CO)NC(=O)c2cccc(NCc3nnc(-c4ccncn4)n3C)c2)cc1 (centres unmarked) [drawing 575],,,,,< 4.52,3.3,8.1,
CCOc1ccccc1CNC(=O)c1cccc(NCc2nnc(-c3ccncn3)n2C)c1 [compound 7],3.32,30,14.2,4.29,,,,"IC50 [4, 6]: 33 nM"
O=C(N[C@@H]1COc2ccccc21)c1cccc(NCc2nnc(-c3ccncn3)n2CCO)c1,,,,,7.05,1.95,< 3.6,
C[C@@H](NC(=O)c1cccc(NCc2nnc(-c3ccncn3)n2C)c1)c1ncccc1Cl [compound 29],1.24,12,5.01,4.04,,,,
Cn1c(CNc2cccc(C(=O)NCc3cccc(C#N)c3)c2)nnc1-c1ccncn1 [drawing 591],,,,,< 4.52,2.7,12,
"O=C(NCc1ccccc1C(F)(F)F)c1cccc(NCc2nnc3n2CCCOc2ccccc2-3)c1 [133a, reference compound]",0.14,,0.24,1.71,,,,
COc1ncccc1CNC(=O)c1cccc(NCc2nnc(-c3ccncc3)[nH]2)c1 [drawing 424],,,,,< 4.96,12,5.8,
COc1cccnc1CNC(=O)c1cccc(NCc2nnc(-c3ccncc3)[nH]2)c1 [compound 33],1.33,7.8,17.7,13.27,,,,
Cn1c(CNc2cccc(C(=O)N[C@H]3CCOc4cccnc43)c2)nnc1-c1ccncn1,,,,,< 5.00,144,990,
C[C@@H](NC(=O)c1cccc(NCc2nnc(-c3ccncn3)n2C)c1)c1ncccc1Cl [drawing 845],,,,,4.57,,,"IC50 [2, 9]: 12 nM; IC50 [4, 10]: 15 nM"
CNS(=O)(=O)c1cccc(F)c1CNC(=O)c1cccc(NCc2nnc(-c3ccncn3)n2C)c1,,,,,6.14,,,"IC50 [2, 9]: 7.36 nM; IC50 [4, 10]: 12.7 nM"
CC(NC(=O)c1cccc(NCc2nnc(-c3ccncn3)n2C)c1)c1c[nH]cn1 (centres unmarked) [drawing 599],,,,,< 4.52,5.7,60,
Cn1c(CNc2cccc(C(=O)NCc3cnc4ccccn34)c2)nnc1-c1ccncn1,,,,,5.83,0.96,3.2,
CCS(=O)(=O)c1ccc(CNC(=O)c2cccc(NCc3nnc(-c4ccncn4)n3C)c2)cc1 [drawing 618],,,,,< 4.52,6.2,21,
C#Cc1cccc(OS(=O)(=O)F)c1CNC(=O)c1cccc(NCc2nnc(-c3ccncc3)[nH]2)c1,,,,,5.81,,,pIC50 [2]: 8.05; pIC50 [4]: 8.38
